Reference: patent US20230054976A1, “METHODS FOR INHIBITION OF ALPHA-SYNUCLEIN mRNA USING SMALL MOLECULES” (The Scripps Research Institute, priority 2019, published 2023)

How the values were obtained:
[1] = tested on: SH-SY5Y cells proteome; assay: Proteomics profiling by mass spectrometry; type: cell-based, human; settings: 48 h
Description: Treatment with Synucleozid and siRNA for proteomics profiling using Mass Spectrometry. SH-SY5Y cells were cultured in 100 mm dishes to 60% confluency and treated with 1.5 μM of Synucleozid or DMSO, or transfected with 0.1 μM α-synuclein siRNA (ON-TARGETplus Human SNCA siRNA-SMARTpool) or scramble siRNA (ON-TARGETplus Non-targeting siRNA) using Lipofectamine RNAiMAX (Invitrogen) according to the manufacturer's instructions for 48 h. Cells were gently washed twice with ice-cold PBS, detached and lysed in PBS via sonication. […] Same samples were then denatured in 6 M urea in 50 mM NH4HCO3, reduced with 10 mM tris(2-carboxyethyl)phosphine hydrochloride (TCEP) for 30 min, and alkylated with 25 mM iodoacetamide for 30 min, in the dark at room temperature. Samples were diluted to 2 M urea with 50 mM NH4HCO3, and digested with trypsin (Thermo Scientific, 1.5 μL of 0.5 μg/μL) in the presence of 1 mM CaCl2 (100× stock in water). The digestion was performed for 12 h at 37° C. Samples were acidified to a final concentration of 5% acetic acid, desalted over a self-packed C18 spin column, and dried. Samples were then analyzed by LC-MS/MS (see below). The MS data were processed with MaxQuant.
LC-MS/MS analysis. Peptides from samples described above were resuspended in water with 0.1% formic acid and analyzed using EASY-nLC 1200 nano-UHPLC coupled to Q Exactive HF-X Quadrupole-Orbitrap mass spectrometer (Thermo Scientific). The chromatography column consists 30 cm long, 75 μm i.d. microcapillary capped by a 5 μm tip and packed with ReproSil-Pur 120 C18-AQ 2.4 μm beads (Dr. Maisch GmbH). LC solvents had two buffers which were Buffer A (0.1% formic acid in H2O) and Buffer B (0.1% formic acid in 90% MeCN:10% H2O). Peptides from samples described above were eluted into the mass spectrometer at a flow rate of 300 nL/min over a 240 min linear gradient (5-35% Buffer B) at 65 C. Data-dependent mode (top-20, NCE 28, R=7500) was used to acquire data after full MS scan (R=60000, m/z 400-1300). Dynamic exclusion was 10 s. Peptide match was set to prefer. Isotope exclusion was enabled.
MaxQuant analysis. MaxQuant (11) (V1.6.1.0) was used to analyze the mass spectrometer data. Data was searched against the human proteome (Uniprot) and a list of contaminants (included in MaxQuant). The first and main peptide search tolerance were set to 20 ppm and 10 ppm respectively. Fragment mass tolerance was set to 0.02 Da. The false discovery rate (FDR) was 1% for proteins, peptides, and sites identification. The minimum peptide length was set to 6 amino acids (AA). Peptide requantification, label-free quantification (MaxLFQ), “match between runs” were all enabled. The minimal number of peptides for every protein was set to 2. A variable modification was set to be methionine oxidation, and a fixed modification was set to be carbamidomethylation of cysteines in searches.

[2] = tested on: 32P-labeled SNCA IRE hairpin RNA; assay: RNase H-mediated ASO-Bind-Map; type: binding, human
Description: RNase H-mediated ASO-Bind-Map. SNCA IRE hairpin RNA was 5′-end labeled with [γ-^32P]ATP and T4 kinase as previously described^5. Approximately, 5 pmoles of ^32P labeled IRE RNA per reaction was folded in 1× RNase H buffer (New England Biolabs) by heating to 65° C. for 5 min and slowly cooling to room temperature. Serially diluted concentrations of Synucleozid were added to the RNA solutions and incubated at room temperature for 30 min. One of ASOs was then added to a final concentration of 500 nM, followed by incubation at room temperature for 30 min. Next, 0.05 U/μL RNase H (New England Biolabs) was added into each RNA-ligand mixture, and the samples were incubated for 20 min. Reactions were quenched by incubating at 65° C. for 20 min. T
Two ladders were generated to identify the positions of RNase H cleavage. Each guanosine (G) residue was identified by using RNase T1 under denaturing conditions as described above. Likewise, a hydrolysis ladder was generated as described above. Reactions were stopped by addition of an equal volume of 2× Loading Buffer. Fragments were separated on a denaturing 15% polyacrylamide gel and imaged using a BioRad PMI phosphorimager. Images were quantified with BioRad's QuantityOne software.

[3] = tested on: SH-SY5Y cells; assay: Cell viability (MTS) assay; type: cell-based, human; settings: 0.25, 0.5 and 1 μM, 48 h
Description: (§1) To assess if Synucleozid has a cytotoxic effect, SH-SY5Y cells were treated with 0.25 μM to 1 μM for 48 h, and cell viability and cytotoxicity were measured using CellTiter 96 Aqueous One Solution Cell Proliferation Assay (MTS) according to the manufacturers' instructions.
as §1, with “0.25, 0.5 and” for “0.25 μM to”, “(MTS) and LDH release assay, respectively,” for “(MTS)”

[4] = tested on: SNCA mRNA; assay: RT-qPCR of SNCA mRNA levels in SH-SY5Y cells; type: cell-based, human
[5] = molecular target: RNA-1 (A bulge mutated to a base pair); assay: Competitive binding assay (2-AP), RNA-1
Description: EC50 was calculated from Eq. (1).

[6] = tested on: SH-SY5Y cells; assay: LDH release cytotoxicity assay; type: cell-based, human; settings: 0.25, 0.5 and 1 μM, 48 h
Description: as §1, with “0.25, 0.5 and” for “0.25 μM to”, “(MTS) and LDH release assay, respectively,” for “(MTS)”

[7] = tested on: APP 5′ UTR; assay: Luciferase reporter assay, APP 5′ UTR, SH-SY5Y cells; type: cell-based, human
[8] = tested on: A-bulge-mutated RNA (fully paired RNA); assay: Thermal melting experiment, fully paired RNA; type: binding
From the text: Thermal melting experiment.

[9] = Synucleozid 1.5 μM vs vehicle, siRNA 0.1 μM vs scrambled control siRNA

## N=C(N)c1ccc(Nc2ccc(-c3cc4ccc(C(=N)N)cc4[nH]3)cc2)cc1 [Synucleozid A]
[1]; 1.5 μM
  effect on proteins encoded by mRNAs with IREs (ACO2, NDUFS1, CDC42BPB, FTH1): Only FTH1 was affected
[1]; [9]
  number of proteins downregulated: 143
  number of proteins with increased expression: 140
  proteins affected, percentage of detected: 8%
  proteins downregulated, % of all proteins: 4.3%
  proteins with increased expression, % of all proteins: 4.2%
[1]; Synucleozid 1.5 μM vs vehicle, siRNA 0.1 μM vs scrambled control siRNA, adjusted p-value <0.01
  number of proteins affected among 3300 detected: 283
[2]; 1 μM
  protection from RNase H cleavage, ASOs hybridized with sites other than A bulge: no protection from cleavage
[2]; 0.1, 1, and 10 μM, ASO (1-10) and ASO (40-50) overlap with the A bulge
  protection of the IRE from RNase H cleavage: only observed with ASOs whose binding sites overlap with the A bulge
[3]
  cell viability (MTS): no toxicity
[3]; listed as Synucleozid
  cell viability (MTS): no effect
[4]
  effect on steady-state levels of SNCA mRNA: no effect
[5]
  Kd: ~20 µM
  reduction of avidity compared to the native IRE: 10 fold
[6]
  LDH release (cytotoxicity): no toxicity
[6]; listed as Synucleozid
  LDH release (cytotoxicity): no effect
[7]
  effect on translation of luciferase fused to APP 5′ UTR: no effect
[8]
  effect on thermal stability of A-bulge-mutated RNA: no significant effect
